Source: PubChem BioAssay (NCI)
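Tested at 5 concentrations; 48 h exposure; 96-well plates; endpoints linearly interpolated, else capped at highest concentration. GI50 marks 50% less growth. TGI marks complete inhibition of growth.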

How the values were obtained:
Test in all cases: DTP human tumour cell line panel, 48 h
SF-539 CNS = test system: SF-539 CNS
DLD-1 colon = test system: DLD-1 colon
COLO 205 colon = test system: COLO 205 colon
OVCAR-8 ovarian = test system: OVCAR-8 ovarian
DMS 114 small cell lung = test system: DMS 114 small cell lung
EKVX NSCLC = test system: EKVX NSCLC
SK-OV-3 ovarian = test system: SK-OV-3 ovarian
DMS 273 small cell lung = test system: DMS 273 small cell lung
MALME-3M melanoma = test system: MALME-3M melanoma
ACHN renal = test system: ACHN renal
MOLT-4 leukemia = test system: MOLT-4 leukemia
XF 498 CNS = test system: XF 498 CNS
OVCAR-5 ovarian = test system: OVCAR-5 ovarian
HCT-116 colon = test system: HCT-116 colon
TK-10 renal = test system: TK-10 renal
KM20L2 colon = test system: KM20L2 colon
NCI-H23 lung = test system: NCI-H23 lung
HCT-15 colon = test system: HCT-15 colon
LXFL 529 NSCLC = test system: LXFL 529 NSCLC
A549 NSCLC = test system: A549 NSCLC
SNB-78 CNS = test system: SNB-78 CNS
M14 melanoma = test system: M14 melanoma
UO-31 renal = test system: UO-31 renal
NCI-H460 lung = test system: NCI-H460 lung
HL-60(TB) leukemia = test system: HL-60(TB) leukemia
M19-MEL melanoma = test system: M19-MEL melanoma
KM12 colon = test system: KM12 colon
SK-MEL-28 melanoma = test system: SK-MEL-28 melanoma
A498 renal = test system: A498 renal
HOP-92 NSCLC = test system: HOP-92 NSCLC
SK-MEL-5 melanoma = test system: SK-MEL-5 melanoma
SF-268 CNS = test system: SF-268 CNS
SK-MEL-2 melanoma = test system: SK-MEL-2 melanoma
SW-620 colon = test system: SW-620 colon
HT29 colon = test system: HT29 colon
OVCAR-3 ovarian = test system: OVCAR-3 ovarian
CCRF-CEM leukemia = test system: CCRF-CEM leukemia
SNB-75 CNS = test system: SNB-75 CNS
786-0 renal = test system: 786-0 renal
IGROV1 ovarian = test system: IGROV1 ovarian
OVCAR-4 ovarian = test system: OVCAR-4 ovarian
UACC-257 melanoma = test system: UACC-257 melanoma
SNB-19 CNS = test system: SNB-19 CNS
K-562 leukemia = test system: K-562 leukemia
NCI-H522 lung = test system: NCI-H522 lung
LOX IMVI melanoma = test system: LOX IMVI melanoma
RPMI-8226 leukemia = test system: RPMI-8226 leukemia
SN12C renal = test system: SN12C renal
UACC-62 melanoma = test system: UACC-62 melanoma
U251 CNS = test system: U251 CNS

[Co].[O-]c1cccnc1C=Nc1ccccc1.[OH3+]
GI50 (SF-539 CNS): > 100 µM
TGI (SF-539 CNS): > 100 µM
GI50 (DLD-1 colon): 90.7 µM
TGI (DLD-1 colon): > 100 µM
GI50 (COLO 205 colon): > 100 µM
TGI (COLO 205 colon): > 100 µM
GI50 (OVCAR-8 ovarian): > 100 µM
TGI (OVCAR-8 ovarian): > 100 µM
GI50 (DMS 114 small cell lung): > 100 µM
TGI (DMS 114 small cell lung): > 100 µM
GI50 (EKVX NSCLC): > 100 µM
TGI (EKVX NSCLC): > 100 µM
GI50 (SK-OV-3 ovarian): > 100 µM
TGI (SK-OV-3 ovarian): > 100 µM
GI50 (DMS 273 small cell lung): > 100 µM
TGI (DMS 273 small cell lung): > 100 µM
GI50 (MALME-3M melanoma): > 100 µM
TGI (MALME-3M melanoma): > 100 µM
GI50 (ACHN renal): 79.9 µM
TGI (ACHN renal): > 100 µM
GI50 (MOLT-4 leukemia): 78.3 µM
TGI (MOLT-4 leukemia): > 100 µM
GI50 (XF 498 CNS): > 100 µM
TGI (XF 498 CNS): > 100 µM
GI50 (OVCAR-5 ovarian): > 100 µM
TGI (OVCAR-5 ovarian): > 100 µM
GI50 (HCT-116 colon): > 100 µM
TGI (HCT-116 colon): > 100 µM
GI50 (TK-10 renal): > 100 µM
TGI (TK-10 renal): > 100 µM
GI50 (KM20L2 colon): > 100 µM
TGI (KM20L2 colon): > 100 µM
GI50 (NCI-H23 lung): > 100 µM
TGI (NCI-H23 lung): > 100 µM
GI50 (HCT-15 colon): 50.4 µM
TGI (HCT-15 colon): > 100 µM
GI50 (LXFL 529 NSCLC): 47.2 µM
TGI (LXFL 529 NSCLC): > 100 µM
GI50 (A549 NSCLC): > 100 µM
TGI (A549 NSCLC): > 100 µM
GI50 (SNB-78 CNS): > 100 µM
TGI (SNB-78 CNS): > 100 µM
GI50 (M14 melanoma): > 100 µM
TGI (M14 melanoma): > 100 µM
GI50 (UO-31 renal): 56.2 µM
TGI (UO-31 renal): > 100 µM
GI50 (NCI-H460 lung): > 100 µM
TGI (NCI-H460 lung): > 100 µM
GI50 (HL-60(TB) leukemia): 21.8 µM
TGI (HL-60(TB) leukemia): > 100 µM
GI50 (M19-MEL melanoma): > 100 µM
TGI (M19-MEL melanoma): > 100 µM
GI50 (KM12 colon): > 100 µM
TGI (KM12 colon): > 100 µM
GI50 (SK-MEL-28 melanoma): 82.6 µM
TGI (SK-MEL-28 melanoma): > 100 µM
GI50 (A498 renal): > 100 µM
TGI (A498 renal): > 100 µM
GI50 (HOP-92 NSCLC): 28.7 µM
TGI (HOP-92 NSCLC): > 100 µM
GI50 (SK-MEL-5 melanoma): > 100 µM
TGI (SK-MEL-5 melanoma): > 100 µM
GI50 (SF-268 CNS): 99.3 µM
TGI (SF-268 CNS): > 100 µM
GI50 (SK-MEL-2 melanoma): > 100 µM
TGI (SK-MEL-2 melanoma): > 100 µM
GI50 (SW-620 colon): > 100 µM
TGI (SW-620 colon): > 100 µM
GI50 (HT29 colon): > 100 µM
TGI (HT29 colon): > 100 µM
GI50 (OVCAR-3 ovarian): > 100 µM
TGI (OVCAR-3 ovarian): > 100 µM
GI50 (CCRF-CEM leukemia): > 100 µM
TGI (CCRF-CEM leukemia): > 100 µM
GI50 (SNB-75 CNS): 49.7 µM
TGI (SNB-75 CNS): > 100 µM
GI50 (786-0 renal): > 100 µM
TGI (786-0 renal): > 100 µM
GI50 (IGROV1 ovarian): > 100 µM
TGI (IGROV1 ovarian): > 100 µM
GI50 (OVCAR-4 ovarian): > 100 µM
TGI (OVCAR-4 ovarian): > 100 µM
GI50 (UACC-257 melanoma): > 100 µM
TGI (UACC-257 melanoma): > 100 µM
GI50 (SNB-19 CNS): > 100 µM
TGI (SNB-19 CNS): > 100 µM
GI50 (K-562 leukemia): 45.8 µM
TGI (K-562 leukemia): > 100 µM
GI50 (NCI-H522 lung): 39.3 µM
TGI (NCI-H522 lung): > 100 µM
GI50 (LOX IMVI melanoma): > 100 µM
TGI (LOX IMVI melanoma): > 100 µM
GI50 (RPMI-8226 leukemia): > 100 µM
TGI (RPMI-8226 leukemia): > 100 µM
GI50 (SN12C renal): > 100 µM
TGI (SN12C renal): > 100 µM
GI50 (UACC-62 melanoma): 86.1 µM
TGI (UACC-62 melanoma): > 100 µM
GI50 (U251 CNS): > 100 µM
TGI (U251 CNS): > 100 µM
